Test results reported in patent publication US7897769B2, “Intermediates for fluorinated dihydrotetrabenazine ether imaging agents and probes” (General Electric Company, priority 2007, dated 2011).

Target: T1, VMAT-2 (Rattus norvegicus, UniProt Q01827)
T1 construct: Novascreen Biosciences Corporation (contract assay provider) protocol Cat. No. 100-0751
Test: VMAT-2 binding affinity measurement (Novascreen protocol Cat. No. 100-0751)
Settings: for Ki: VMAT-2 binding affinity; for binding affinity for VMAT-2 (in words): relative to a DTBZ control
Experimental: VMAT-2 binding affinity measurements were carried out by Novascreen Biosciences Corporation (Hanover, Md., USA) using protocol Cat. No. 100-0751. Novascreen, Inc. is a commercial provider of biological assays for the pharmaceutical industry.

T1 sequence (Q01827 whole entry): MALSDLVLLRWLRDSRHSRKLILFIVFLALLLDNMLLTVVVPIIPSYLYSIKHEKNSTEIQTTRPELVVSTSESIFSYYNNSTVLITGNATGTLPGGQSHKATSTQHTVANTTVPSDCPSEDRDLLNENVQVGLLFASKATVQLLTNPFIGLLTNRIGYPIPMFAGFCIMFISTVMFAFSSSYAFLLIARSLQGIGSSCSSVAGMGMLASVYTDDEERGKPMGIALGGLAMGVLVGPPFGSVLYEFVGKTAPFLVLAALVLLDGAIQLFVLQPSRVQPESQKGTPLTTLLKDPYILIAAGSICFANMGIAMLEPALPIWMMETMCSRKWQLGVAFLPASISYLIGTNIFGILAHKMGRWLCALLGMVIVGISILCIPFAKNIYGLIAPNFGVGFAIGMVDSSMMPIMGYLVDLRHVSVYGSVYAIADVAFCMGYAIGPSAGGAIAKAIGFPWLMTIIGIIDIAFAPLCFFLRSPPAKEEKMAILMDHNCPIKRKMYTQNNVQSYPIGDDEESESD

| Ki | binding affinity for VMAT-2 (in words) | Structure (SMILES) |
| --- | --- | --- |
| 6.4 nM | very high binding affinity | COc1cc2c(cc1OC)[C@H]1C[C@@H](OCCCF)[C@H](CC(C)C)CN1CC2 [Compound 23] |
| 3.2 nM | very high binding affinity | COc1cc2c(cc1OC)[C@H]1C[C@@H](OCCF)[C@H](CC(C)C)CN1CC2 [Compound 22] |
